Test results taken from patent US12466813B2, “PRC1 inhibitors and methods of treatment therewith” (The Regents of the University of Michigan, priority 2018, dated 2025).

What follows are compounds tested against T1, RING1B-BMI1 (Homo sapiens, UniProt Q99496) (assay: KD classes of Table A (direct binding to Ring1B-Bmi1)). Details: class given in Table A.
T1 sequence (Q99496 1-336): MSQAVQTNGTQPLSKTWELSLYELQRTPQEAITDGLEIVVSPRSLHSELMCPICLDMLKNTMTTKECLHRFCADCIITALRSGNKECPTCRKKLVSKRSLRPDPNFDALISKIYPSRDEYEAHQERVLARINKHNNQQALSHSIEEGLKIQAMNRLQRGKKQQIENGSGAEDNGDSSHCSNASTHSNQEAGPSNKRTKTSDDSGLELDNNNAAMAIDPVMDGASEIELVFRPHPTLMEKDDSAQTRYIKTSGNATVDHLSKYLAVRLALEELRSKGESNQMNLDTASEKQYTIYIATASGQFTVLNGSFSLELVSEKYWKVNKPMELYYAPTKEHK
T1 sequence (P35226 1-326 partner): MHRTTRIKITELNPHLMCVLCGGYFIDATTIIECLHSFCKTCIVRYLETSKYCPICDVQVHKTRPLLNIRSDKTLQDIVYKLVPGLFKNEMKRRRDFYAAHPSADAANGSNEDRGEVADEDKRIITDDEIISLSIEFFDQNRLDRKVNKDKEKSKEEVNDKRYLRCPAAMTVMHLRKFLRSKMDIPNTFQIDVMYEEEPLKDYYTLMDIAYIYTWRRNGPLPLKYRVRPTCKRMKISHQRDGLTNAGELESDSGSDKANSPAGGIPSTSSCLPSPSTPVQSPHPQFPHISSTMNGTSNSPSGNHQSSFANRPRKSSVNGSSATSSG
Experimental: Experiments were conducted during development of embodiments herein to develop small molecule inhibitors of PRC1 by targeting the Ring1B-BMI1 E3 ligase. These compounds bind directly to Ring1B-Bmi1 with low-micromolar affinity and inhibit PRC1 in vitro and in cells. […] Experiments were conducted during development of embodiments herein to test COMPOUND 1 in leukemia stem cell models represented by TEX cells (Ref. 22; herein incorporated by reference in its entirety) and M9-ENL1 cells (Ref. 23; herein incorporated by reference in its entirety). […] In some embodiments, COMPOUND 1 and COMPOUND 1 analogs are find use as agents in targeting leukemia and other cancer stem cells.
The compounds listed in Table A have been synthesized and/or tested for activity in inhibiting activity of PRC1 complex, and are within the scope herein.

Kd	Compound
< 20 µM	CC(C)c1c(-c2cc(F)cc3[nH]ccc23)[nH]c(C(=O)O)c1-c1cccc2[nH]c(C(=O)O)cc12 [compound 47]
< 20 µM	CC(C)c1c(-c2cccc3[nH]c(CO)cc23)[nH]c(C(=O)O)c1-c1c(Cl)ccc2[nH]ccc12 [compound 52]
< 20 µM	CCc1cc(-c2[nH]c(C(=O)O)c(-c3c(Cl)ccc4[nH]ccc34)c2C(C)C)c2cc[nH]c2c1 [compound 9]
< 20 µM	CC(C)c1c(-c2cc(F)cc3[nH]ccc23)[nH]c(C(=O)O)c1-c1cccc2c1ccn2CS(C)(=O)=O [compound 264]
50 to 100 µM	CCc1c(-c2cccc3[nH]ccc23)[nH]c(C(=O)O)c1-c1ccc(C)cc1 [compound 100]
< 20 µM	CC(C)c1c(-c2cc(F)cc3[nH]ccc23)[nH]c(C(=O)O)c1-c1cccc2nc[nH]c12 [compound 206]
< 20 µM	CC(C)c1c(-c2cc(F)cc3[nH]ccc23)[nH]c(C(=O)O)c1-c1cccc2[nH]c(S(C)(=O)=O)cc12 [compound 228]
< 20 µM	CC(C)c1c(-c2cc(F)cc3[nH]ccc23)[nH]c(CCS(N)(=O)=O)c1-c1cccc2[nH]ccc12 [compound 221]
< 20 µM	CNCc1ccc2[nH]ccc2c1-c1c(C(=O)O)[nH]c(-c2cc(F)cc3[nH]ccc23)c1C(C)C [compound 239]
< 20 µM	CCc1c(-c2cccc3[nH]ccc23)[nH]c(C(=O)O)c1-c1c(Cl)cc(OC)c2[nH]ccc12 [compound 18]
< 20 µM	CC(C)c1c(-c2ccc3[nH]ccc3c2)[nH]c(C(=O)O)c1-c1c(Cl)ccc2[nH]ccc12 [compound 181]
< 20 µM	CC(C)c1c(-c2cc(F)cc3[nH]ccc23)[nH]c(S(C)(=O)=O)c1-c1cccc2[nH]ccc12 [compound 218]
> 100 µM	CCc1c(-c2cccc3c2ccn3C)[nH]c(C(=O)O)c1-c1ccc(OC)cc1 [compound 108]
> 100 µM	Cc1cc(-c2cccc3c2ccn3C)[nH]c1C(=O)O [compound 117]
< 20 µM	CC(C)c1c(-c2cc(F)cc3[nH]ccc23)[nH]c(C(=O)O)c1-c1cccc2[nH]c(CCS(N)(=O)=O)cc12 [compound 231]
< 20 µM	Cc1cc(-c2c(C(=O)O)[nH]c(-c3cc(F)cc4[nH]ccc34)c2C(C)C)c2cc[nH]c2c1 [compound 51]
> 100 µM	CCn1ccc2c(-c3ccc(C(=O)O)[nH]3)cccc21 [compound 122]
< 20 µM	CCC(C)c1c(-c2cccc3[nH]ccc23)[nH]c(C(=O)O)c1-c1cccc2[nH]ccc12 (centres unmarked) [compound 73]
< 20 µM	CC(C)c1c(-c2cc(F)cc3[nH]ccc23)[nH]c(C(=O)O)c1-c1cc(OCC(=O)O)ccc1Cl [compound 60]
< 20 µM	COc1cccc(-c2c(C(=O)O)[nH]c(-c3cc(F)cc4[nH]ccc34)c2C(C)C)c1Cl [compound 57, 3-(2-chloro-3-methoxyphenyl)-5-(6-fluoro-1H-indol-4-yl)-4-isopropyl-1H-pyrrole-2-carboxylic acid]

Kd	Compound
< 20 µM	CC(C)c1c(-c2cc(F)cc3[nH]ccc23)[nH]c(C(=O)O)c1-c1cccc2nc(NS(C)(=O)=O)sc12 [compound 232]
> 100 µM	Cn1ccc2c(-c3ccc(C(=O)O)[nH]3)cccc21 [compound 127]
< 20 µM	COc1cc(-c2c(C(=O)O)[nH]c(-c3cc(F)cc4[nH]ccc34)c2C(C)C)c2cc(C)[nH]c2c1 [compound 193]
< 20 µM	COc1cc(-c2c(C(=O)O)[nH]c(-c3cc(F)cc4[nH]ccc34)c2C(C)C)c2ccn(CCNC(=O)c3nccs3)c2c1 [compound 177, 5-(6-fluoro-1H-indol-4-yl)-4-isopropyl-3-(6-methoxy-1-(2-(thiazole-2-carboxamido)ethyl)-1H-indol-4-yl)-1H-pyrrole-2-carboxylic acid]
< 20 µM	CCc1c(-c2cccc3[nH]ccc23)[nH]c(C(=O)O)c1-c1ccccc1Cl [compound 65]
< 20 µM	Cc1c[nH]c2cccc(-c3c(C(=O)O)[nH]c(-c4cccc5[nH]ccc45)c3C(C)C)c12 [compound 34]
< 20 µM	CC(C)c1c(-c2cccc3[nH]ccc23)c(C(=O)O)n2c1-c1cc(F)cc3ccn(c13)S(=O)(=O)C2 [compound 273]
20 to 50 µM	CCc1c(-c2cccc3[nH]ccc23)[nH]c(C(=O)O)c1-c1cccc(OC)c1 [compound 85]
20 to 50 µM	CCc1c(-c2cccc3[nH]ccc23)[nH]c(C(=O)O)c1CC1CCCCC1 [compound 78]
< 20 µM	Cc1cc(-c2[nH]c(C(=O)O)c(-c3c(Cl)ccc4[nH]ccc34)c2C(C)C)c2cc[nH]c2c1 [compound 8]
< 20 µM	CC(C)CCc1c[nH]c2cccc(-c3c(C(=O)O)[nH]c(-c4cc(F)cc5[nH]ccc45)c3C(C)C)c12 [compound 188]
< 20 µM	COc1cc(-c2c(C(=O)O)[nH]c(-c3cc(F)cc4[nH]ccc34)c2C(C)C)c2ccn(CCNC(=O)Cc3cscn3)c2c1 [compound 178]
< 20 µM	COc1cc(-c2c(C(=O)O)[nH]c(-c3cc(F)cc4[nH]ccc34)c2C(C)C)c2ccn(CC(=O)O)c2c1 [compound 46]
< 20 µM	COc1ccc2[nH]ccc2c1-c1c(C(=O)O)[nH]c(-c2cc(F)cc3[nH]ccc23)c1C(C)C [compound 244]
< 20 µM	CC(C)c1c(-c2cc(F)cc3[nH]ccc23)[nH]c(C(=O)O)c1-c1cc(F)cc2[nH]ccc12 [compound 36]
20 to 50 µM	CCc1c(-c2cccc3[nH]ccc23)[nH]c(C(=O)O)c1-c1cc([N+](=O)[O-])ccc1Cl [compound 81]
50 to 100 µM	CCc1c(-c2cccc3[nH]ccc23)[nH]c(C(=O)O)c1-c1cccc(Oc2ccccc2)c1 [compound 97]
< 20 µM	CC(C)c1c(-c2cc(F)cc3[nH]ccc23)[nH]c(C(=O)O)c1-c1cc(Oc2nccs2)cc2[nH]ccc12 [compound 201]
< 20 µM	CCc1ccc2[nH]ccc2c1-c1c(C(=O)O)[nH]c(-c2cc(F)cc3[nH]ccc23)c1C(C)C [compound 242]
> 100 µM	O=C(O)c1cc(-c2ccccc2)c(-c2cccc3[nH]ccc23)[nH]1 [compound 118]

Kd	Compound
> 100 µM	Cc1cc(C(=O)O)[nH]c1-c1cccc2[nH]ccc12 [compound 121]
20 to 50 µM	CCc1c(-c2cccc3[nH]ccc23)[nH]c(C(=O)O)c1-c1ccccc1C(F)(F)F [compound 82]
< 20 µM	CC(C)c1c(-c2cc(F)cc3[nH]ccc23)[nH]c(C(=O)O)c1-c1c(Cl)ccc2[nH]c(C(=O)O)cc12 [compound 53]
> 100 µM	CCOC(=O)c1[nH]c(-c2cccc3[nH]ncc23)c(CC)c1-c1ccc(OC)cc1Cl [compound 163]
< 20 µM	CC(C)c1c(-c2cc(F)cc3[nH]ccc23)[nH]c(C(=O)O)c1-c1ccnc2[nH]c(C3=CCN(S(=O)(=O)N(C)C)CC3)cc12 [compound 257]
< 20 µM	CSCc1ccc2[nH]ccc2c1-c1c(C(=O)O)[nH]c(-c2cc(F)cc3[nH]ccc23)c1C(C)C [compound 238]
> 100 µM	CCOc1cccc(-c2ccc(C(=O)O)[nH]2)c1 [compound 148]
< 20 µM	CC(C)c1c(-c2cc(F)cc3[nH]ccc23)[nH]c(C(=O)O)c1-c1cccc2[nH]cc(CCO)c12 [compound 187]
< 20 µM	CC(C)c1c(-c2cc(F)cc3[nH]ccc23)[nH]c(C(=O)O)c1-c1ccc2c3c1ccn3CCO2 [compound 213]
< 20 µM	CC(C)c1c(-c2cccc3[nH]cc(CCO)c23)[nH]c(C(=O)O)c1-c1c(Cl)ccc2[nH]ccc12 [compound 27]
> 100 µM	CCc1c(-c2cccc3[nH]ccc23)[nH]c(C(=O)O)c1C1CCCCC1 [compound 102]
< 20 µM	CC(C)c1c(-c2cccc3c2ccn3N)[nH]c(C(=O)O)c1-c1cccc2[nH]ccc12 [compound 214]
> 100 µM	Nc1cccc(-c2ccc(C(=O)O)[nH]2)c1 [compound 125]
< 20 µM	COc1ccc(-c2c(C(=O)O)[nH]c(-c3cc(F)cc4[nH]ccc34)c2C(C)C)c(F)c1 [compound 58]
< 20 µM	CC(C)c1c(-c2cc(F)cc3[nH]ccc23)[nH]c(C(=O)O)c1-c1cccc2[nH]c3ccccc3c12 [compound 210]
< 20 µM	CC(c1c(-c2cccc3[nH]ccc23)[nH]c(C(=O)O)c1-c1cccc2[nH]ccc12)C(F)F (centres unmarked) [compound 30, 4-(1,1-Difluoropropan-2-yl)-3,5-di(1H-indol-4-yl)-1H-pyrrole-2-carboxylic acid]
< 20 µM	CC(C)c1c(-c2cc(Cl)cc3[nH]ccc23)[nH]c(C(=O)O)c1-c1c(Cl)ccc2[nH]ccc12 [compound 13]
< 20 µM	CC(C)c1c(-c2cc(F)cc3[nH]ccc23)[nH]c(C(=O)O)c1-c1cccc2[nH]c(S(N)(=O)=O)cc12 [compound 227]
< 20 µM	CC(C)c1c(-c2cc(F)cc3[nH]ccc23)[nH]c(C(=O)O)c1-c1c2cc[nH]c2cc2[nH]ccc12 [compound 269]
